Experimental findings from patent US20110059043A1, “CHEMICAL COMPOUNDS” (priority 2009, published 2011) are described below.

Series [1] addresses T1, Recombinant HCV polymerase (BK strain) (Hepatitis C virus genotype 1b, UniProt P26663).
T1 construct: Recombinant HCV polymerase (BK strain) was expressed and purified from E. coli with a 21 amino acid C-terminal deletion; His6; made in house; host or cells: E. coli
As to the kind of experiment: HCV polymerase enzyme assay (radiometric [33P]-UTP incorporation). It counts as biochemical, HCV 1b. The gist of the method:
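His6-tagged BK-strain NS5B lacking 21 C-terminal residues, expressed in E. coli, at 100 nM in Tris pH 7.5 with 5 mM MgCl2 and 3% DMSO. Substrates: 125 nM biotin-U13:0.63 μg/ml PolyA, 200 nM UTP plus [33P]-UTP; 100 min at 25° C. Incorporation read by streptavidin capture; IC50 from 8-point curve.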

For series [2], the system named is HCV replicon cells Huh 9B. The class given is cell-based. Particulars: concentration reducing total cell area by 50% relative to DMSO controls; 72 h. The gist of the method: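 Huh 9B replicon cells (luciferase-ubiquitin-neomycin fusion, EMCV-IRES-driven HCV polyprotein with adaptive mutations) were seeded from a 100,000 cells/ml suspension in G418-free medium, grown 24 h, then exposed to compound (dilutions at 1% DMSO) for 72 h at 37 °C. For toxicity, methylene blue staining was read at 620 nm and TD50 derived relative to DMSO controls.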

For series [3], the system named is HCV replicon cells Huh 9B. Kind of series: HCV replicon assay (luciferase). The class given is cell-based. Particulars: Hepatitis C virus, reduction of replicon level by 50% vs untreated cell control, 72 h.

pIC50: −log10 of the molar value.

In general, pIC50 refers to the IC50 on a negative log10 scale, so that one unit is a factor of ten.

T1 sequence (P26663 2420-2989): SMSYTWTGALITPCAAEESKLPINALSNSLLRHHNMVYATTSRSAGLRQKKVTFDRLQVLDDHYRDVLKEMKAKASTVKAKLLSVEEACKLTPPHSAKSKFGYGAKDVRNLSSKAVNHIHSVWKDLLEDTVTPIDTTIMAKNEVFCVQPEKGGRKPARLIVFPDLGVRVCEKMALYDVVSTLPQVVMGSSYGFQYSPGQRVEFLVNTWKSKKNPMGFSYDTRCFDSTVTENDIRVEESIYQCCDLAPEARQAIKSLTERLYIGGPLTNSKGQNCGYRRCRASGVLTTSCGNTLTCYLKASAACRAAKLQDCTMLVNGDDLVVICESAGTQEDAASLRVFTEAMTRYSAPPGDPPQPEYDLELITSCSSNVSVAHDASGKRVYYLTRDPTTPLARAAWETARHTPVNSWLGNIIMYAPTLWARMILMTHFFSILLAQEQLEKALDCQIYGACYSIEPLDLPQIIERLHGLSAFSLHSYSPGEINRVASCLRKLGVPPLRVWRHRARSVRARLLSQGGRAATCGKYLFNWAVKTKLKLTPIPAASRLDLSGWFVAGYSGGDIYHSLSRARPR

`CC(C)OCCOc1ncc(F)cc1C(=O)NC1N=C(c2c(Cl)cc(Cl)cc2Cl)c2ccccc2NC1=O` (stereo not drawn) [Example 36, 5-Fluoro-2-(2-isopropoxyethoxy)-N-(2-oxo-5-(2,4,6-trichlorophenyl)-2,3-dihydro-1H-benzo[e][1,4]diazepin-3-yl)nicotinamide]: the figures for the pIC50 in series [1] and in series [3] were 6.61 and 6.51, respectively. Moreover, in series [2], the “Replicon Assay Value TD50” value amounted to 13.55 µM.

As for `COCCOCCOc1ncc(F)cc1C(=O)NC1N=C(c2c(Cl)cc(Cl)cc2Cl)c2ccccc2NC1=O` (stereo not drawn) [Example 37, 5-Fluoro-2-(2-(2-methoxyethoxy)ethoxy)-N-(2-oxo-5-(2,4,6-trichlorophenyl)-2,3-dihydro-1H-benzo[e][1,4]diazepin-3-yl)nicotinamide], the pIC50 in series [1] was 6.99; in series [3] it was 6.58. Also, the “Replicon Assay Value TD50” value in series [2] turned out to be 23.09 µM.

In the case of `COCCCOc1ncc(F)cc1C(=O)NC1N=C(c2c(Cl)cc(Cl)cc2Cl)c2ccccc2NC1=O` (stereo not drawn) [Example 38, 5-Fluoro-2-(3-methoxypropoxy)-N-(2-oxo-5-(2,4,6-trichlorophenyl)-2,3-dihydro-1H-benzo[e][1,4]diazepin-3-yl)nicotinamide], the pIC50 in series [1] was 7.10; in series [3], 7.80. In addition, in series [2], the “Replicon Assay Value TD50” value worked out at 22.269 µM.

Take `CCOCCCOc1ncc(F)cc1C(=O)NC1N=C(c2c(Cl)cc(Cl)cc2Cl)c2ccccc2NC1=O` (stereo not drawn) [Example 39, 2-(3-Ethoxypropoxy)-5-fluoro-N-(2-oxo-5-(2,4,6-trichlorophenyl)-2,3-dihydro-1H-benzo[e][1,4]diazepin-3-yl)nicotinamide]: the pIC50 in series [1] was 7.02; in series [3], 7.18. For the same compound, in series [2], the “Replicon Assay Value TD50” value was determined as 11.83 µM.

Turning to `COCCOc1nccc(C)c1C(=O)NC1N=C(c2c(Cl)cc(Cl)cc2Cl)c2ccccc2NC1=O` (stereo not drawn) [Example 40, 2-(2-Methoxyethoxy)-4-methyl-N-(2-oxo-5-(2,4,6-trichlorophenyl)-2,3-dihydro-1H-benzo[e][1,4]diazepin-3-yl)nicotinamide], the pIC50 in series [1] was 5.53; in series [3], 6.07. The “Replicon Assay Value TD50” value in series [2] worked out at 24.518 µM.

As for `COCCN(C)c1ncc(F)cc1C(=O)NC1N=C(c2c(Cl)cc(Cl)cc2Cl)c2ccccc2NC1=O` (stereo not drawn) [Example 41, 5-Fluoro-2-((2-methoxyethyl)(methyl)amino)-N-(2-oxo-5-(2,4,6-trichlorophenyl)-2,3-dihydro-1H-benzo[e][1,4]diazepin-3-yl)nicotinamide], the pIC50 in series [1] is 6.89; in series [3] it was 7.61. Also, the “Replicon Assay Value TD50” value in series [2] came to 24.146 µM.

On to `COCCNc1ncc(F)cc1C(=O)NC1N=C(c2c(Cl)cc(Cl)cc2Cl)c2ccccc2NC1=O` (stereo not drawn) [Example 42, 5-Fluoro-2-(2-methoxyethylamino)-N-(2-oxo-5-(2,4,6-trichlorophenyl)-2,3-dihydro-1H-benzo[e][1,4]diazepin-3-yl)nicotinamide], for which the pIC50 in series [1] is 6.01; in series [3], 5.58. Also, the “Replicon Assay Value TD50” value in series [2] was found to be 17.784 µM.

As for `CCN(CCOC)c1ncc(F)cc1C(=O)NC1N=C(c2c(Cl)cc(Cl)cc2Cl)c2ccccc2NC1=O` (stereo not drawn) [Example 43, 2-(Ethyl(2-methoxyethyl)amino)-5-fluoro-N-(2-oxo-5-(2,4,6-trichlorophenyl)-2,3-dihydro-1H-benzo[e][1,4]diazepin-3-yl)nicotinamide], the results for the pIC50 in series [1] and in series [3] were 6.69 and 6.10, respectively. The “Replicon Assay Value TD50” value in series [2] stood at 23.97 µM.

Regarding `COCCN(c1ncc(F)cc1C(=O)NC1N=C(c2c(Cl)cc(Cl)cc2Cl)c2ccccc2NC1=O)C(C)C` (stereo not drawn) [Example 44, 5-Fluoro-2-(isopropyl(2-methoxyethyl)amino)-N-(2-oxo-5-(2,4,6-trichlorophenyl)-2,3-dihydro-1H-benzo[e][1,4]diazepin-3-yl)nicotinamide], the negative-log IC50 (pIC50) in series [1] is 5.88; in series [3], 5.58. Besides, the “Replicon Assay Value TD50” value in series [2] is 23.394 µM.

Take `CCOCCN(CC)c1ncc(F)cc1C(=O)NC1N=C(c2c(Cl)cc(Cl)cc2Cl)c2ccccc2NC1=O` (stereo not drawn) [Example 45, 2-((2-Ethoxyethyl)(ethyl)amino)-5-fluoro-N-(2-oxo-5-(2,4,6-trichlorophenyl)-2,3-dihydro-1H-benzo[e][1,4]diazepin-3-yl)nicotinamide]: the pIC50 was 6.75 in series [1] and 6.12 in series [3]. The “Replicon Assay Value TD50” value in series [2] is 18.864 µM.

As to `CN(CCOCC1CC1)c1ncc(F)cc1C(=O)NC1N=C(c2c(Cl)cc(Cl)cc2Cl)c2ccccc2NC1=O` (stereo not drawn) [Example 46, 2-((2-(Cyclopropylmethoxy)ethyl)(methyl)amino)-5-fluoro-N-(2-oxo-5-(2,4,6-trichlorophenyl)-2,3-dihydro-1H-benzo[e][1,4]diazepin-3-yl)nicotinamide], the pIC50 in series [1] was 6.78; in series [3], 6.82. For the same compound, the “Replicon Assay Value TD50” value in series [2] amounted to 15.961 µM.

In the case of `COCCOc1ccc(Cl)cc1C(=O)NC1N=C(c2c(Cl)cccc2Cl)c2ccccc2NC1=O` (stereo not drawn) [Example 47, 5-Chloro-N-(5-(2,6-dichlorophenyl)-2-oxo-2,3-dihydro-1H-benzo[e][1,4]diazepin-3-yl)-2-(2-methoxyethoxy)benzamide], the values for the negative logarithm of the IC50 (pIC50) in series [1] and in series [3] were 6.83 and 6.23, respectively. Besides, the “Replicon Assay Value TD50” value in series [2] was more than 25 µM.

As for `COCCOc1ccc(F)cc1C(=O)NC1N=C(c2c(Cl)cccc2Cl)c2ccccc2NC1=O` (stereo not drawn) [Example 48, N-(5-(2,6-Dichlorophenyl)-2-oxo-2,3-dihydro-1H-benzo[e][1,4]diazepin-3-yl)-5-fluoro-2-(2-methoxyethoxy)benzamide], the pIC50 was 6.81 in series [1] and 6.15 in series [3]. Also, in series [2], the “Replicon Assay Value TD50” value is more than 25 µM.

`COCCOc1ccc(Cl)cc1C(=O)NC1N=C(c2c(Cl)cc(Cl)cc2CN2CCOCC2)c2ccccc2NC1=O` (stereo not drawn) [Example 49, 5-Chloro-N-(5-(2,4-dichloro-6-(morpholinomethyl)phenyl)-2-oxo-2,3-dihydro-1H-benzo[e][1,4]diazepin-3-yl)-2-(2-methoxyethoxy)benzamide]: the figures for the negative logarithm of the IC50 (pIC50) in series [1] and in series [3] were 6.08 and 6.78, respectively. In addition, the “Replicon Assay Value TD50” value in series [2] was determined as 11.02 µM.

As for `COCCOc1ccc(F)cc1C(=O)NC1N=C(c2c(Cl)cc(Cl)cc2CN2CCOCC2)c2ccccc2NC1=O` (stereo not drawn) [Example 50, N-(5-(2,4-Dichloro-6-(morpholinomethyl)phenyl)-2-oxo-2,3-dihydro-1H-benzo[e][1,4]diazepin-3-yl)-5-fluoro-2-(2-methoxyethoxy)benzamide], the pIC50 in series [1] was 6.18; in series [3] it was 6.68. In addition, in series [2], the “Replicon Assay Value TD50” value is 11.74 µM.

In the case of `COCCOc1ncc(Cl)cc1C(=O)NC1N=C(c2c(Cl)cc(Cl)cc2CN2CCOCC2)c2ccccc2NC1=O` (stereo not drawn) [Example 51, 5-Chloro-N-(5-(2,4-dichloro-6-(morpholinomethyl)phenyl)-2-oxo-2,3-dihydro-1H-benzo[e][1,4]diazepin-3-yl)-2-(2-methoxyethoxy)nicotinamide], the pIC50 is 5.91 in series [1] and 6.55 in series [3]. The “Replicon Assay Value TD50” value in series [2] was more than 25 µM.

In the case of `COCCOc1ncc(F)cc1C(=O)NC1N=C(c2c(Cl)cc(Cl)cc2CN2CCOCC2)c2ccccc2NC1=O` (stereo not drawn) [Example 52, N-(5-(2,4-Dichloro-6-(morpholinomethyl)phenyl)-2-oxo-2,3-dihydro-1H-benzo[e][1,4]diazepin-3-yl)-5-fluoro-2-(2-methoxyethoxy)nicotinamide], the figures for the pIC50 in series [1] and in series [3] were 6.22 and 6.89, respectively. In series [2], the “Replicon Assay Value TD50” value amounted to 24.829 µM.

Take `COCCOc1ccc(F)cc1C(=O)NC1N=C(c2c(Cl)cc(Cl)cc2OC)c2ccccc2NC1=O` (stereo not drawn) [Example 53, N-(5-(2,4-Dichloro-6-methoxyphenyl)-2-oxo-2,3-dihydro-1H-benzo[e][1,4]diazepin-3-yl)-5-fluoro-2-(2-methoxyethoxy)benzamide]: the results for the pIC50 in series [1] and in series [3] were 6.81 and 7.23, respectively. The “Replicon Assay Value TD50” value in series [2] was determined as 24.827 µM.

For the compound `CCOCCOc1ncc(F)cc1C(=O)NC1N=C(c2c(Cl)cc(Cl)cc2OC)c2ccccc2NC1=O` (stereo not drawn) [Example 55, N-(5-(2,4-Dichloro-6-methoxyphenyl)-2-oxo-2,3-dihydro-1H-benzo[e][1,4]diazepin-3-yl)-2-(2-ethoxyethoxy)-5-fluoronicotinamide], the pIC50 in series [1] was 6.93; in series [3], 7.57. Moreover, the “Replicon Assay Value TD50” value in series [2] stood at 18.821 µM.

`CCOc1cc(Cl)cc(Cl)c1C1=NC(NC(=O)c2cc(F)ccc2OCCOC)C(=O)Nc2ccccc21` (stereo not drawn) [Example 56, N-(5-(2,4-Dichloro-6-ethoxyphenyl)-2-oxo-2,3-dihydro-1H-benzo[e][1,4]diazepin-3-yl)-5-fluoro-2-(2-methoxyethoxy)benzamide]: the figures for the negative-log IC50 (pIC50) in series [1] and in series [3] were 6.81 and 7.41, respectively. Further, the “Replicon Assay Value TD50” value in series [2] turned out to be 11.349 µM.

As to `CCOc1cc(Cl)cc(Cl)c1C1=NC(NC(=O)c2cc(F)cnc2OCCOC)C(=O)Nc2ccccc21` (stereo not drawn) [Example 57, N-(5-(2,4-Dichloro-6-ethoxyphenyl)-2-oxo-2,3-dihydro-1H-benzo[e][1,4]diazepin-3-yl)-5-fluoro-2-(2-methoxyethoxy)nicotinamide], the pIC50 was 7.14 in series [1] and 7.69 in series [3]. Also, the “Replicon Assay Value TD50” value in series [2] was 22.698 µM.
